Results published in patent US6683077B2, “2-Amino-benzoxazinones for the treatment of viral infections” (G.D. Searle & Co., priority 1996, dated 2004).
pEC50, pIC50: −log10 of the molar value.

Key:
[1] = biological target: HCMV protease (assemblin) (Human cytomegalovirus, UniProt P16753); assay: Enzymatic assay for HCMV protease (assemblin) inhibitors; format: biochemical
[2] = biological target: T1, Human leukocyte elastase (HLE) (Homo sapiens, UniProt P08246); assay: Human leukocyte elastase assay; format: biochemical; conditions: @ 100 (concentration unit not given)
T1 construct: gift of R. Senior, Washington University
T1 sequence (P08246 30-267): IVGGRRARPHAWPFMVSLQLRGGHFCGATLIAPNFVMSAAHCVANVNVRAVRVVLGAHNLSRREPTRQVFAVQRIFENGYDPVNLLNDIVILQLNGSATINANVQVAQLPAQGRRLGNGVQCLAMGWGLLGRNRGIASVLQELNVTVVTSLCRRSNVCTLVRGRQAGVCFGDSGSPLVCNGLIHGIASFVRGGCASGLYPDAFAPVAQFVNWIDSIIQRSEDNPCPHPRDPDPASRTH
Summary of the method: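 HLE in 0.2 M Tris, pH 8.0, was preincubated 30 minutes at ambient temperature with compound in DMSO. The reaction was started with methoxysuccinyl-Ala-Ala-Pro-Val-p-nitroanilide (2.5 mM added solution), and absorbance increase at 405 nm was monitored for 10 minutes.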

HCMV (strain AD169) = assay: HCMV ELISA antiviral assay (viral antigen); format: cell-based, human cytomegalovirus; conditions: Human betaherpesvirus 5, Fibroblast; HCMV AD169 in human foreskin fibroblasts; value before the slash; unit inferred; read-out: Antiviral Activity Elisa, first value (EC50)
Excerpt: These complimentary assays tested the ability of a compound to inhibit the production of new virus and the toxicity of the compound to she host cells. It was important that both assays be performed simultaneously in order to compare the results directly since, toxicity may indirectly reduce viral yield.
Viral yield was estimated by measuring the amount of a viral antigen produced 4 days post infection with a monoclonal antibody to an abundant “immediate early” viral protein. An enzyme-linked (horseradish peroxidase) secondary antibody specific to the primary (mouse) antibody was urged to measure the amount of viral antigen. Test compounds were diluted to 2-times the desired final concentration in DMEM+5% FBS. One hundred microliters of this solution was placed in each well of a 96-well plate. This was performed once for the antiviral 96-well plate and again for a cytotoxicity plate. Two controls were also included for both plates; a no drug control and a no virus control. Ganciclovir was routinely tested in antiviral and cytotoxicity plates as a reference standard because it has known antiviral activity for HCMV. All cells were prepared by harvesting human foreskin fibroblasts, with trypsin and re-suspending at a concentration of 5×10^5 cells per ml in DMEM. Infected cells were prepared by infecting these with HCMV (strain AD169) at a multiplicity of infection=0.2. One hundred microliters of uninfected cells (5×10^4 cells) were added to the appropriate wells of the cytotoxicity plate. In a similar manner 100 μl of infected cells (5×10^4 cells) were added to the appropriate wells of the antiviral plate. Additionally, uninfected cells not treated with test compound were included as controls on the antiviral plate. Plates were incubated for 96 hours at 37° C. in 5% CO2 atmosphere and processed to measure the amount of viral antigen and toxicity.
The following was performed on the antiviral plate only. Media was removed and cells were fixed with 1:1 acetone:methanol for 15 minutes at −20° C. Fixative was removed and cells were washed once with PBS containing 0.05% Tween20. In order to block nonspecific binding of antibodies, each well was incubated with PBS containing 3% (w/v) bovine serum albumin (BSA) for 1 hour at 22° C. The blocking solution was removed and the cells were washed once with PBS containing 0.05% Tween20 before incubating with 1:100 dilution of primary antibody in PBS containing 3% BSA for 2 hours at 22° C. The primary antibody was a monoclonal antibody (mouse source) specific to the immediate early nuclear antigen of HCMV and was commercially available (Dupont). The 1° antibody solution was removed and the plate was rinsed 5 times with PBS containing 1% (v/v) Triton X-100 (PBST) before incubating with secondary antibody diluted 1:1000 in PBS containing 3% BSA for 2 hours at 22° C. The secondary antibody (goat source) recognized the murine-specific determinants of the 1° antibody and was covalently linked to horseradish peroxidase (Sigma). The plate was rinsed 5 times with PBST and once with deionized water before adding 100 μl TMB substrate solution and incubating 30 minutes at 22° C. The reaction was stopped by adding 100 μL of phosphoric acid and the OD at 450 nm recorded. TMB (3,3′,5,5′ tetramethylbenzidine) was the substrate for the horseradish peroxidase linked to the 2° antibody. It was made from a commercially available kit (Kirkegaard & Perry Laboratories, Inc.). Antiviral activity was calculated by comparing the amount of viral antigen produced in drug treated wells with that produced in wells absent of drug.

[3] = biological target: T2, Bovine pancreas α-chymotrypsin (Bos taurus, UniProt P00766, DEL14-15/DEL147-148); assay: Chymotrypsin assay; format: biochemical
T2 construct: Bovine pancreas α-chymotrypsin (type II, Sigma); purchased Sigma type II; host or cells: bovine pancreas
Description: The chymotrypsin assay was modified from the method of Delmar et al [Anal. Biochem., 99, 316-320 (1979)]. Bovine pancreas α-chymotrypsin (type II, Sigma) was dissolved in 0.001 N HCl at 1 mg/ml and further diluted 1/600 in assay buffer (0.1 M Tris, pH 7.8, containing 0.1 M CaCl2) before use. 20 μl of test compound in DMSO (or DMSO alone), 100 μl of assay buffer and 30 μl of enzyme were added to […], mixed and pre-incubated for 30 minutes at ambient temperature. Reaction was initiated by addition of 50 Al of 0.2 mM N-succinyl-Ala-Ala-Pro-Phe-p-nitroanilide (Sigma; 2 mM in DMSO diluted 1/10 in assay buffer before use). The increase in absorbance at 405 nm was monitored for 10 minutes with a Biotek EL340 plate reader.

[4] = system: HCMV engineered virus RC256; assay: microbe, parasite or virus in culture; format: cell-based, human cytomegalovirus; conditions: Human betaherpesvirus 5, Fibroblast, read-out: Antiviral Activity RC256, first value (EC50)
[5] = system: human foreskin fibroblasts

Sequence of HCMV protease (assemblin) (P16753 1-256): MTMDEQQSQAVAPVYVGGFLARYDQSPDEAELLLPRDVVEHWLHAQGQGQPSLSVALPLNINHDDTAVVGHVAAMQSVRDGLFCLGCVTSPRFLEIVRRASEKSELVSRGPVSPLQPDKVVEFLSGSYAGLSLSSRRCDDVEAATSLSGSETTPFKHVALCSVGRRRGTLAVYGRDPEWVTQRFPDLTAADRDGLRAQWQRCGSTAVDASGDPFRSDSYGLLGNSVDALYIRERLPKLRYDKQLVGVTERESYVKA

## Cc1c(NC(=O)CN(C)C)ccc2nc(N[C@@H](C)c3ccccc3)oc(=O)c12 [Example 11m, 5-Methyl-6-[[(dimethylaminomethyl)carbonyl]amino]-2-[[(1S)-phenylethyl]amino]-4H-3,1-benzoxazin-4-one]
[1]; @ 1 (concentration unit not given)
  Assemblin Protease, % @ concentration: 67% @ 1.0
[2]
  HLE, % @ concentration: 37% @ 100
HCMV (strain AD169)
  pEC50: 4.06

## COC(=O)[C@H](C)Nc1nc2cccc(C)c2c(=O)o1 [Example 1b, N-(5-Methyl-4-oxo-4H-3,1-benzoxazin-2-yl)-L-alanine, methyl ester]
HCMV (strain AD169)
  pEC50: 4.14

## COc1ccc(C[C@H](Nc2nc3ccc(NC(=O)Oc4ccccc4)c(C)c3c(=O)o2)C(=O)N(C)Cc2ccccc2)cc1 [Example 11q, Phenyl[2-[[1S-[(4-methoxyphenyl)methyl]-2-[methyl(phenylmethyl)amino]-2-oxcethyl]amino]-5-methyl-4H-3,1-benzoxazin-6-yl]carbamate]
[1]
  pIC50: 6.22
[3]
  pIC50: 5.62
[4]
  pEC50: 4.74

## COCC(=O)Nc1ccc2nc(N[C@@H](Cc3ccccc3)C(=O)OC)oc(=O)c2c1C [Example 11c, N-[6-[[(Methoxymethyl)carbonyl]amino]-5-methyl-4-oxo-4H-3,1-benzoxazin-2-yl]-L-phenylalanine, methyl ester]
[2]
  HLE, % @ concentration: 83% @ 100
HCMV (strain AD169)
  pEC50: 4.11

## COC(=O)[C@H](Cc1cscn1)Nc1nc2ccc(NC(=O)OC(C)(C)C)c(C)c2c(=O)o1 [Example 6e, N-[6-[[(1,1-Dimethylethoxy)carbonyl]amino]-5-methyl-4-oxo-4H-3,1-benzoxazin-2-yl]-L-thiazol-4-yl-alanine, methyl ester]
HCMV (strain AD169)
  pEC50: 4.24

## 1,1-Dimethylethyl[2-[[1S-[(4-methoxyphenyl)methyl]-2-oxo-2-[[2-(2-pyridinyl)ethyl]amino]ethyl]amino]-5-methyl-4-oxo-4H-3,1-benzoxazin-6-yl]carbamate [Example 6hh]
[3]; @ 10 (concentration unit not given)
  Chymotrypsin, % @ concentration: 21% @ 10
[5]
  Antiviral Activity RC256, second value (cytotoxicity): 60

## Cc1cccc2nc(N[C@@H](C)c3ccccc3)oc(=O)c12 [Example 3b, 5-Methyl-2-[[(1S)-1-phenylethyl]amino]-4H-3,1-benzoxazin-4-one]
HCMV (strain AD169)
  pEC50: 4.57

## Cc1c(NC(=O)OC(C)(C)C)ccc2nc(N[C@@H](C)C(=O)N(C)Cc3ccccc3)oc(=O)c12 [Example 6aa, N-[6-[[(1,1-Dimethylethoxy)carbonyl]amino]-5-methyl-4-oxo-4H-3,1-benzoxazin-2-yl]-L-alanine, N-methyl-N-phenylmethylamide]
HCMV (strain AD169)
  pEC50: 4.12

## Cc1c(NC(=O)OC(C)(C)C)ccc2nc(N[C@@H](C)C(=O)N3CCCC3)oc(=O)c12 [Example 6g, N-[6-[[(1,1-Dimethylethoxy)carbonyl]amino]-5-methyl-4-oxo-4H-3,1-benzoxazin-2-yl]-L-alanine, pyrrolidineamiae]
HCMV (strain AD169)
  pEC50: 4.00

## 3,5-Diiodo-N-(5-methyl-(3,5-diiodo)2-yl)-L-tyrosine, methyl ester [Example 1q]
[5]
  Antiviral Activity RC256, second value (cytotoxicity): 70
